Source: patent publication US20260374773A1, “MULTI-CYCLIC IRAK AND FLT3 INHIBITING COMPOUNDS AND USES THEREOF” (CHILDREN'S HOSPITAL MEDICAL CENTER, priority 2022, published 2026)

Target: T1, FLT3 N841I (Homo sapiens, UniProt P36888, N841I)
T1 sequence (P36888 27-993 N841I): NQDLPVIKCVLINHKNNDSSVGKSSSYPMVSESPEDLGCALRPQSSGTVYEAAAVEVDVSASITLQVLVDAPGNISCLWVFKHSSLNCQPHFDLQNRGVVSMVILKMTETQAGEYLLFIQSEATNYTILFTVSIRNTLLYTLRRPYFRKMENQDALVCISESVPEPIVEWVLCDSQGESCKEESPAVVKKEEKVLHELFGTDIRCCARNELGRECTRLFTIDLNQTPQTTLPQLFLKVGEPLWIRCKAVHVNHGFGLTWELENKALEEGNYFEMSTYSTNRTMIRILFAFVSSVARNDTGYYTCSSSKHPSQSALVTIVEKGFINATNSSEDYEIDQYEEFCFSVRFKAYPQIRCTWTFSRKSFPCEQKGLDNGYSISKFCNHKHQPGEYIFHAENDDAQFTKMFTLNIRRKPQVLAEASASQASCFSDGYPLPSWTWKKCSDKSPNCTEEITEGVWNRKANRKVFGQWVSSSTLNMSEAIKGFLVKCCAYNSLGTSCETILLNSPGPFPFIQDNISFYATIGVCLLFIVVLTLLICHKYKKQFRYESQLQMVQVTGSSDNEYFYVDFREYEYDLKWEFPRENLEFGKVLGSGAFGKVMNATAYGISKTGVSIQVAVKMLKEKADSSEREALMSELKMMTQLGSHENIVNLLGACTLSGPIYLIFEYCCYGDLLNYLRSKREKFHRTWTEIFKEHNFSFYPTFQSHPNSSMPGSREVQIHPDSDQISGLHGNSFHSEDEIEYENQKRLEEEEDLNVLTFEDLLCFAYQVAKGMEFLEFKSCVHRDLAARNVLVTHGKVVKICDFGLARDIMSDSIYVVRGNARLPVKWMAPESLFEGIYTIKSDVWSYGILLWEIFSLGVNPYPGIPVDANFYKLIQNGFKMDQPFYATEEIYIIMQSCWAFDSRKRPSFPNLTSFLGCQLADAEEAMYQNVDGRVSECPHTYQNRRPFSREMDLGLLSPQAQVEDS
Test: DiscoverX KINOMEscan active site-directed competition binding, FLT3 N841I
Conditions: no ATP
Text: (§1) Kinase binding data were obtained for various exemplary compounds prepared according to Examples 1-8 using the DiscoverX KINOMEscan® active site-directed competition binding site-directed assay protocol described below. […] As a result, the data report thermodynamic interaction affinities (Kd values), rather than IC50 values that are dependent on ATP concentrations. The assay uses a DNA-tagged version of the protein kinase, and an immobilized ligand bound to a solid support. Compounds that directly or indirectly prevent kinase binding to the immobilized ligand reduce the amount of kinase captured on the solid support, which is detected using an ultra-sensitive qPCR method. Affinity constants reported from the assay have been reported to be independent of the immobilized ligand used that is coupled to the solid support (See supplemental information in Fabian, M. A. et. al., (2005) Nat. Biotechnol. 23, 329-336; Wodicka, L. M. et. al., (2010) Chem. Biol. 17, 1241-1249.)
Kinase-tagged T7 phage strains were prepared in an E. coli host derived from the BL21 strain. E. coli were grown to log-phase and infected with T7 phage and incubated with shaking at 32 °C until lysis. The lysates were centrifuged and filtered to remove cell debris. The remaining kinases were produced in HEK-293 cells and subsequently tagged with DNA for qPCR detection. Streptavidin-coated magnetic beads were treated with biotinylated small molecule ligands for 30 minutes at room temperature to generate affinity resins for kinase assays. The liganded beads were blocked with excess biotin and washed with blocking buffer (SeaBlock (Pierce), 1% BSA, 0.05% Tween 20, 1 mM DTT) to remove unbound ligand and to reduce non-specific binding. […] Test compounds were prepared as 111x stocks in 100% DMSO. Kds were determined using an 11-point 3-fold compound dilution series with three DMSO control points. All compounds for Kd measurements are distributed by acoustic transfer (non-contact dispensing) in 100% DMSO. The compounds were then diluted directly into the assays such that the final concentration of DMSO was 0.9%. All reactions were performed in polypropylene 384-well plates. Each was a final volume of 0.02 mL. The assay plates were incubated at room temperature with shaking for 1 hour and the affinity beads were washed with wash buffer (1×PBS, 0.05% Tween 20). The beads were then re-suspended in elution buffer (1×PBS, 0.05% Tween 20, 0.5 μM nonbiotinylated affinity ligand) and incubated at room temperature with shaking for 30 minutes. The kinase concentration in the eluates was measured by qPCR. Binding constants (Kds) were calculated with a standard dose-response curve using the Hill equation. The Hill Slope was set to −1. Curves were fitted using a non-linear least square fit with the Levenberg-Marquardt algorithm.
as §1, with “9-12” for “1-8”
Kinase-tagged T7 phage strains were prepared in an E. coli host derived from the BL21 strain. […]

Q: `COc1cn2ncc(-c3nc(N[C@H]4CNCC[C@@H]4F)ncc3F)c2nc1C(C)(C)O` [Compound 6a, 2-(3-(5-fluoro-2-(((3S,4S)-4-fluoropiperidin-3-yl)amino)pyrimidin-4-yl)-6-methoxypyrazolo[1,5-a]pyrimidin-5-yl)propan-2-ol] was tested. Which Kd (Table 19) did it give?
A: The Kd was 0.7 nM.

Q: Which Kd (Table 19) does the source give for `COc1cn2ncc(-c3nc(N[C@@H]4CCCNC4)ncc3F)c2nc1C1CC1` [Compound 14a, (R)-4-(5-cyclopropyl-6-methoxypyrazolo[1,5-a]pyrimidin-3-yl)-5-fluoro-N-(piperidin-3-yl)pyrimidin-2-amine] here?
A: The Kd was less than 0.17 nM.

Q: How did the Kd (Table 19) turn out when `COc1cn2ncc(-c3ccnc(N[C@H]4CNCC[C@@H]4F)n3)c2nc1C1CC1` [Compound 7a, 4-(5-cyclopropyl-6-methoxypyrazolo[1,5-a]pyrimidin-3-yl)-N-((3S,4S)-4-fluoropiperidin-3-yl)pyrimidin-2-amine] was run?
A: Its Kd is 0.62 nM.

Q: For `COc1cn2ncc(-c3nc(N[C@H]4CNCC[C@@H]4F)c(C#N)cc3F)c2nc1C(C)(C)O` [Compound 10, 5-fluoro-2-(((3S,4S)-4-fluoropiperidin-3-yl)amino)-6-(5-(2-hydroxypropan-2-yl)-6-methoxypyrazolo[1,5-a]pyrimidin-3-yl)nicotinonitrile], which Kd (Table 13) is on record?
A: Its Kd is 0.48 nM.

Q: How did the Kd (Table 19) turn out when `COc1cn2ncc(-c3cncc(N[C@H]4CNCC[C@@H]4F)n3)c2nc1C1CC1` [Compound 12a, 6-(5-cyclopropyl-6-methoxypyrazolo[1,5-a]pyrimidin-3-yl)-N-((3S,4S)-4-fluoropiperidin-3-yl)pyrazin-2-amine] was run?
A: The Kd was 0.27 nM.

Q: `COc1cn2ncc(-c3nc(N[C@H]4CNCC[C@@H]4F)c(F)cc3F)c2nc1C(C)(C)O` [Compound 13, 2-(3-(3,5-difluoro-6-(((3S,4S)-4-fluoropiperidin-3-yl)amino)pyridin-2-yl)-6-methoxypyrazolo[1,5-a]pyrimidin-5-yl)propan-2-ol] was tested. Which Kd (Table 13) did it give?
A: Its Kd is 0.79 nM.

Q: How did the Kd (Table 13) turn out when `COc1cn2ncc(-c3nc(N[C@H]4CNCC[C@@H]4F)c(C#N)cc3F)c2nc1C1CC1` [Compound 7, 6-(5-cyclopropyl-6-methoxypyrazolo[1,5-a]pyrimidin-3-yl)-5-fluoro-2-(((3S,4S)-4-fluoropiperidin-3-yl)amino)nicotinonitrile] was run?
A: The Kd was less than 0.17 nM.

Q: `COc1cn2ncc(-c3nc(N[C@H]4CNCC[C@@H]4F)ncc3F)c2nc1C1CC1` [Compound 15a, 4-(5-cyclopropyl-6-methoxypyrazolo[1,5-a]pyrimidin-3-yl)-5-fluoro-N-((3S,4S)-4-fluoropiperidin-3-yl)pyrimidin-2-amine] was tested. Which Kd (Table 19) did it give?
A: The Kd was less than 0.17 nM.
